Source: patent US8101658B2, “Nitric oxide donating prostamides” (Nicox S.A., priority 2008, dated 2012)
“And” between values parts separate entries of the source, which are not always exact repeats. Equal values may be shown once. Marks after values point to notes of the source that are not given here.

Assays:
[1] = system: ocular normotensive dogs (Beagle); assay: Intraocular pressure by pneumatonometry in ocular normotensive dogs; assay type: in vivo; settings: normotensive dog; for ΔΔEmax (difference in IOP compound-treated eye over vehicle-treated eye at time of maximum reduction): topical 50 μl drop to one eye in the evening, contralateral eye vehicle, dose equimolar to 0.03% Bimatoprost, n=8; for % Change from vehicle control (IOP): topical 50 μl drop to one eye, contralateral eye vehicle (set at 100%)
Experimental: (§1) Intraocular pressure was measured by pneumatonometry in ocular normotensive dogs (Beagle) and ocular hypertensive non human primates (for example, although dosing different here, see hypertensive primates described by Toris, C. B.; Zhan, G.-L.; Feilmeier, M. R.; Camras, C. B.; McLaughlin, M. A. J. Ocular Pharm. Ther. 2006, 22, 86-92). As described, only one eye is hypertensive in this primate model. Studies were performed in conscious animals (n=8/study) trained to accept pneumatonometry. The test compound and controls were formulated in a 10 mM citrate buffer vehicle at pH 5.5 with 0.5% Tween 80 and 0.02% benzalkonium chloride, and were administered in the evening. All test compounds were formulated at a dose equimolar to 0.03% Bimatoprost. Intraocular pressure was measured at −12 (baseline), 12 and 18 hours post treatment. Tetracaine hydrochloride (0.5%) was used to anesthetize the cornea when the intraocular pressure measurements were taken.
(§2) In the primate model, the hypertensive eye received 2×25 μl volume drops of the test compound. After a washout period of one week, the ocular hypertensive eye was then dosed with Bimatoprost (2×25 μl volume drops) as a control. The contralateral, normotensive eye was not treated in the study. In the normotensive dog model, the test compound was administered topically to one eye in a 50 μl volume drop. The contralateral eye received a 50 μl volume drop of blank vehicle or Bimatoprost (in the case of the head-to-head study only) to serve as a control. Students paired t test was used to compare treatment with test compound vs vehicle or Bimatoprost control for significant differences.
(§3) Tables 2 and 3 describe the intraocular pressure (IOP) changes that were seen following topical application of novel NO-prostamides in ocular hypertensive non-human primates and normotensive dogs. ΔEmax represents the maximal efficacy as compared to baseline (BL) values. ΔΔEmax reflects the difference in IOP from compound-treated eye over that seen for vehicle-treated eye at the timepoint wherein maximum IOP reduction for compound was seen. The percent change from vehicle control was the percentage change in IOP reduction conferred by compound over that for vehicle (set at 100%). Tmax represents the time point at which maximum IOP reduction of compound was observed.

[2] = system: ocular hypertensive non human primates; assay: Intraocular pressure by pneumatonometry in ocular hypertensive primates; assay type: in vivo; settings: ocular hypertensive primate, hypertensive eye, topical 2×25 μl drops in the evening, dose equimolar to 0.03% Bimatoprost; for ΔEmax (maximal IOP efficacy as compared to baseline): IOP at 12 and 18 h, n=8
Experimental: as §1, §2, §3

Compound | ΔΔEmax (difference in IOP compound-treated eye over vehicle-treated eye at time of maximum reduction) [1] | % Change from vehicle control (IOP) [1] | % change from Baseline (IOP) [2] | ΔEmax (maximal IOP efficacy as compared to baseline) [2]
CCNC(=O)CCC/C=C\C[C@@H]1[C@@H](/C=C/[C@@H](O)CCc2ccccc2)[C@H](OC(=O)CCCCCO[N+](=O)[O-])C[C@@H]1O [Example F-1, (1R,2R,3R,4S)-3-[(2Z)-7-(Ethylamino)-7-oxohept-2-en-1-yl]-4-hydroxy-2-[(1E,3S)-3-hydroxy-5-phenylpent-1-en-1-yl]cyclopentyl 6-(Nitrooxy)hexanoate] | −4.9** mm H/g | −25** % |  | 
CCNC(=O)CCC/C=C\C[C@@H]1[C@@H](/C=C/[C@H](CCc2ccccc2)OC(=O)CCCO[N+](=O)[O-])[C@H](O)C[C@@H]1O [Example A-1, (1S,2E)-3-{(1R,2R,3S,5R)-2-[(2Z)-7-(Ethylamino)-7-oxohept-2-en-1-yl]-3,5-dihydroxycyclopentyl}-1-(2-phenylethyl)prop-2-en-1-yl 4-(Nitrooxy)butanoate] | −3.6** mm H/g | −20** % |  | 
CCNC(=O)CCC/C=C\C[C@@H]1[C@@H](/C=C/[C@@H](O)CCc2ccccc2)[C@H](O)C[C@@H]1O [Bimatoprost, reference compound] | −4.0** mm H/g | −16** % | −13% | −4.8* mm Hg
CCNC(=O)CCC/C=C\C[C@@H]1[C@@H](/C=C/[C@@H](O)CCc2ccccc2)[C@H](OC(=O)OCCCCO[N+](=O)[O-])C[C@@H]1O [Example G-1, (2R,3R)-3-[(2Z)-7-(Ethylamino)-7-oxohept-2-en-1-yl]-4-hydroxy-2-[(1E,3S)-3-hydroxy-5-phenylpent-1-en-1-yl]cyclopentyl 4-(Nitrooxy)butyl Carbonate] | −3.8** mm H/g | -20% |  | 
CCNC(=O)CCC/C=C\C[C@@H]1[C@@H](/C=C/[C@H](CCc2ccccc2)OC(=O)CCCCCO[N+](=O)[O-])[C@H](O)C[C@@H]1O [Example B-1, (1S,2E)-3-{(1R,2R,3S,5R)-2-[(2Z)-7-(Ethylamino)-7-oxohept-2-en-1-yl]-3,5-dihydroxycyclopentyl}-1-(2-phenylethyl)prop-2-en-1-yl 6-(Nitrooxy)hexanoate] |  | −28** % and −34** % | −24** % | −7.7** mm Hg
CCNC(=O)CCC/C=C\C[C@@H]1[C@@H](/C=C/[C@H](CCc2ccccc2)OC(=O)CCOCCOCCOCCO[N+](=O)[O-])[C@H](O)C[C@@H]1O [Example C-1, (1S,2E)-3-{(1R,2R,3S,5R)-2-[(2Z)-7-(Ethylamino)-7-oxohept-2-en-1-yl]-3,5-dihydroxycyclopentyl}-1-(2-phenylethyl)prop-2-en-1-yl 3-(2-{2-[2-(Nitrooxy)ethoxy]ethoxy}ethoxy)propanoate] | −3.6** mm H/g | -18% |  | 
